How the values were obtained:
[1] = Apparent permeability from basolateral side to apical side in MDCK cells; assay type: ADME, cell-based, Canis lupus familiaris; conditions: dog
[2] = Metabolic stability in human liver microsomes assessed as compound remaining after 30 mins; assay type: ADME, Microsome; conditions: read-out: Stability
CYP2C9 = CYP2C9 (Homo sapiens, UniProt P11712); assay: Inhibition of CYP2C9 (unknown origin) at 10 uM relative to control; assay type: ADME
CYP1A2 = CYP1A2 (Homo sapiens, UniProt P05177); assay: Inhibition of CYP1A2 (unknown origin) at 10 uM relative to control; assay type: ADME
Chain of CYP1A2 (P05177 whole entry): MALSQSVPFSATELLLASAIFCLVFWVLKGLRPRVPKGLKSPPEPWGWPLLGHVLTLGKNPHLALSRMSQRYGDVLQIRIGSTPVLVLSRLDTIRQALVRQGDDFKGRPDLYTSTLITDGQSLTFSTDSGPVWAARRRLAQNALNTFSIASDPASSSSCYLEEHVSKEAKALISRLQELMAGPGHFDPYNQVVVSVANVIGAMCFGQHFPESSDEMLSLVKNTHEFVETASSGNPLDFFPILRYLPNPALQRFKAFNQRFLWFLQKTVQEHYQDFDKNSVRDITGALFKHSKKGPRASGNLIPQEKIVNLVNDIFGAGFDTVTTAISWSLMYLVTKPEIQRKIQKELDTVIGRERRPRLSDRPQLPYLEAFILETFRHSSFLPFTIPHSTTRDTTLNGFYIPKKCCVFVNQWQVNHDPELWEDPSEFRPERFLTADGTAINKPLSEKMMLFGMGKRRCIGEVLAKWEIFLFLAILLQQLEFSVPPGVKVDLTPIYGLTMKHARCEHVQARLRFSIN

MDR1 (P-gp) = assay: Apparent permeability from basolateral side to apical side in MDCK cells harboring MDR1 (unknown origin); assay type: ADME, cell-based, Canis lupus familiaris; conditions: dog
[3] = fAUC (infinity) in mouse at 1 mg/kg, iv or 5 mg/kg, po; assay type: ADME, organism-based; conditions: in vivo
Cytochrome P450 3A4 [4] = target: T1, Cytochrome P450 3A4 (Homo sapiens, UniProt P08684); assay: Time dependent inhibition of CYP3A4 (unknown origin) at <5 uM pre-incubated for 30 mins followed by testosterone substrate addition in absence of NADPH; assay type: ADME
T1 sequence (P08684 whole entry): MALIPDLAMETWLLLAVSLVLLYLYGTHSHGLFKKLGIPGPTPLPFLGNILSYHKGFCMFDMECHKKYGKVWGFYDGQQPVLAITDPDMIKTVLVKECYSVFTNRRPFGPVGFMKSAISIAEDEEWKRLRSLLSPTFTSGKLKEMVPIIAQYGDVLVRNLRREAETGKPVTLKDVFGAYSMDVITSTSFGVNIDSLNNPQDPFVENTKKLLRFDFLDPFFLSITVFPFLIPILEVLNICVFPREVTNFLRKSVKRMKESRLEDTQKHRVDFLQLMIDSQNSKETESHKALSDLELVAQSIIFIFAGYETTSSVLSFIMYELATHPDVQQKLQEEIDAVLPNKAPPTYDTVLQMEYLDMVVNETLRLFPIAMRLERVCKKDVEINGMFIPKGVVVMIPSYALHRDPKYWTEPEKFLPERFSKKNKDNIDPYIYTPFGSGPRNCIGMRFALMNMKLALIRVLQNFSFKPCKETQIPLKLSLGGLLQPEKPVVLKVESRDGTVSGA

[5] = Apparent permeability of the compound across basolateral side to apical side in human Caco2 cells; assay type: ADME, cell-based; conditions: Caco-2
Mus musculus [6] = assay: In vivo inhibition of IDH1 R132C mutant in human HCT116 cells xenografted in BALB/c nude mouse assessed as reduction in tumor 2-HG level at 25 mg/kg, po bid administered at 12 hrs intervals and measured at <= 12 hrs post last dose by LC-MS analysis relative to control; assay type: functional; conditions: HCT-116, po
[7] = target: Voltage-gated inwardly rectifying potassium channel KCNH2 (Homo sapiens, UniProt Q12809); assay: Inhibition of human ERG by patch clamp method
Chain of Voltage-gated inwardly rectifying potassium channel KCNH2 (Q12809 whole entry): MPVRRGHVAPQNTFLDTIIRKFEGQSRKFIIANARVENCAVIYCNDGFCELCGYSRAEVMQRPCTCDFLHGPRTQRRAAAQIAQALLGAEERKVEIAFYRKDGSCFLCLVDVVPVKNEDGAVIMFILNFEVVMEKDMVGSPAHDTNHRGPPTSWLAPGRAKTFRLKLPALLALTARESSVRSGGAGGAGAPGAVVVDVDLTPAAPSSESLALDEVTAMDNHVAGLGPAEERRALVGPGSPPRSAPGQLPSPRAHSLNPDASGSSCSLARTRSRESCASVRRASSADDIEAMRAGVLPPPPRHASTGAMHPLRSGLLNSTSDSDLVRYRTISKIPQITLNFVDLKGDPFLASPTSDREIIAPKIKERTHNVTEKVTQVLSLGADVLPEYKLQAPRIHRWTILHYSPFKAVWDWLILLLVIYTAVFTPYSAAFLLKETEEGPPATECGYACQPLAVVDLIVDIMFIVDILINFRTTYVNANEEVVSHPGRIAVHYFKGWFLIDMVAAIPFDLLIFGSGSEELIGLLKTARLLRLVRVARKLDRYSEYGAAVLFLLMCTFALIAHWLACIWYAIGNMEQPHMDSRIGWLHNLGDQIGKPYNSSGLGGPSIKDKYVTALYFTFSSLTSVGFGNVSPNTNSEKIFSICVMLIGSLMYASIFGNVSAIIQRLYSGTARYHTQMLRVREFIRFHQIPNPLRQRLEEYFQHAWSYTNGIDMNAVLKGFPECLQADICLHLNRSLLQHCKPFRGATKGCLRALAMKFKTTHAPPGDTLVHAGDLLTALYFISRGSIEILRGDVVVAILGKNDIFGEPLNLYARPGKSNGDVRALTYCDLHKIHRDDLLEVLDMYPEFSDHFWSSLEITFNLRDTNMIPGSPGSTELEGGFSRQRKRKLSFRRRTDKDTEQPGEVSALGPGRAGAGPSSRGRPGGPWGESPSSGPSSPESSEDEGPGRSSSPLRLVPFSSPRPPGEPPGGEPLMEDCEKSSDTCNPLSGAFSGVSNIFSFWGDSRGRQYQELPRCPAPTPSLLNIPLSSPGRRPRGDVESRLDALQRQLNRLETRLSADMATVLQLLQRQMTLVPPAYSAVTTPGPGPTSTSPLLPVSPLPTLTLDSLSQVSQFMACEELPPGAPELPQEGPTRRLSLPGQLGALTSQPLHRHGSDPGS

[8] = Clearance in rat at 1 mg/kg, iv or 5 mg/kg, po; assay type: ADME, organism-based; conditions: in vivo
[9] = Free drug concentration in plasma of po dosed BALB/c nude mouse xenografted with human HCT116 harboring R132C mutant administered at 12 hrs intervals and measured after 4 to 24 hrs post last dose; assay type: ADME, organism-based; conditions: in vivo
Cytochrome P450 3A4 [10] = target: T1, Cytochrome P450 3A4; assay: Time dependent inhibition of CYP3A4 (unknown origin) at <5 uM using midazolam as substrate; assay type: ADME
[11] = Apparent permeability of the compound across apical side to basolateral side in human Caco2 cells; assay type: ADME, cell-based; conditions: Caco-2
[12] = target: Isocitrate dehydrogenase [NADP] cytoplasmic (Homo sapiens, UniProt O75874); assay: Inhibition of wild-type IDH1 (unknown origin) by NADPH fluorescence based assay
Chain of Isocitrate dehydrogenase [NADP] cytoplasmic (Homo sapiens, UniProt O75874) (O75874 whole entry): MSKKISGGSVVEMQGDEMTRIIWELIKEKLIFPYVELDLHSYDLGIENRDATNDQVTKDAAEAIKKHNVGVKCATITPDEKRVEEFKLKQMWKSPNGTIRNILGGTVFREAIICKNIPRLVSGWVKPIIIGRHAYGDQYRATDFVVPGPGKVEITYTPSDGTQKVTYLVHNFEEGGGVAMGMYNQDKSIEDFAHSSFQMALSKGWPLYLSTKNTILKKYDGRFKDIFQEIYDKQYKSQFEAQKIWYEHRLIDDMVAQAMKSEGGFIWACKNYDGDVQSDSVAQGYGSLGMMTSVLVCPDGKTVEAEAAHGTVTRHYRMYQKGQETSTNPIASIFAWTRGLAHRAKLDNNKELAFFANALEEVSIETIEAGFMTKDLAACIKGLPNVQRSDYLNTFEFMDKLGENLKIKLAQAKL

[13] = Intrinsic clearance in human hepatocytes; assay type: ADME, cell-based, Hepatocyte; conditions: read-out: CLH
Mus musculus [14] = assay type: functional; conditions: BALB/c, HCT-116, po
CYP2C19 = CYP2C19 (Homo sapiens, UniProt P33261); assay: Inhibition of CYP2C19 (unknown origin) at 10 uM relative to control; assay type: ADME
Chain of CYP2C19 (P33261 whole entry): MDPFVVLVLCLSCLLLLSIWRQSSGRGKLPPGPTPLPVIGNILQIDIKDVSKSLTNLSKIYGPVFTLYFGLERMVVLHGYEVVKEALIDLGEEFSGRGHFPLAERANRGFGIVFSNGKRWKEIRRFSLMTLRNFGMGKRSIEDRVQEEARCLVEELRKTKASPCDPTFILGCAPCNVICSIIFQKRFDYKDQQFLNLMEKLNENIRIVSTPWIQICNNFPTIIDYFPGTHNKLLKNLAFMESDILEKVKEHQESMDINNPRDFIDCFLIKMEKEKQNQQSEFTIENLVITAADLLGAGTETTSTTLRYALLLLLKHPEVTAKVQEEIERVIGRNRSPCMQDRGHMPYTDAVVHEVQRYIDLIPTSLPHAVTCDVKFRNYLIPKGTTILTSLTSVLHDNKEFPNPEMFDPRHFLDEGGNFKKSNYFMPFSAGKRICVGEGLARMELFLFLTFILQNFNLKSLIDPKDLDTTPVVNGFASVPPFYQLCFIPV

CYP3A4 = CYP3A4 (Homo sapiens, UniProt P08684); assay: Inhibition of CYP3A4 (unknown origin) at 10 uM relative to control; assay type: ADME
Chain of CYP3A4 (P08684 whole entry): as the sequence (P08684 whole entry) above

CYP2D6 = CYP2D6 (Homo sapiens, UniProt P10635); assay: Inhibition of CYP2D6 (unknown origin) at 10 uM relative to control; assay type: ADME
Chain of CYP2D6 (P10635 whole entry): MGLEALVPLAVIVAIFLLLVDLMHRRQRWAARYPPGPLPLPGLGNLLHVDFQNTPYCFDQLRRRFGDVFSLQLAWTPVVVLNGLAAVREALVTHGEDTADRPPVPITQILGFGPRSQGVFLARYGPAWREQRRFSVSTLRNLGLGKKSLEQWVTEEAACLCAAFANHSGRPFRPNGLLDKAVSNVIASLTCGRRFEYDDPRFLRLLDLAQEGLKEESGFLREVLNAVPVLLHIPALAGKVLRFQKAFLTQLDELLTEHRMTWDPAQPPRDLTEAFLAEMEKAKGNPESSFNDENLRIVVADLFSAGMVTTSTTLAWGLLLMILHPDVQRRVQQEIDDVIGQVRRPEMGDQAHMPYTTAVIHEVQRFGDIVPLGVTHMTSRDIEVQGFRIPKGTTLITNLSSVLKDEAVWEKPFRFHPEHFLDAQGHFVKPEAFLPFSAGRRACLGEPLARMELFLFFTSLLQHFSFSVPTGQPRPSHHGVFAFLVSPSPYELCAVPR

[15] = Half-life in mouse at 1 mg/kg, iv or 5 mg/kg, po; assay type: ADME, organism-based; conditions: in vivo
[16] = Protein binding in mouse plasma; assay type: ADME, cell-free; conditions: read-out: PPB (converted)
[17] = target: Isocitrate dehydrogenase [NADP] cytoplasmic (Homo sapiens, UniProt O75874, R132G); assay: Inhibition of human Myc-DDK-tagged IDH1 R132G mutant expressed in human U87MG cells assessed as reduction in 2-HG levels after 24 hrs by RapidFire high-throughput mass spectrometry assay; assay type: cell-based
Chain of Isocitrate dehydrogenase [NADP] cytoplasmic (Homo sapiens, UniProt O75874, R132G) (O75874 2-414 R132G limits assumed): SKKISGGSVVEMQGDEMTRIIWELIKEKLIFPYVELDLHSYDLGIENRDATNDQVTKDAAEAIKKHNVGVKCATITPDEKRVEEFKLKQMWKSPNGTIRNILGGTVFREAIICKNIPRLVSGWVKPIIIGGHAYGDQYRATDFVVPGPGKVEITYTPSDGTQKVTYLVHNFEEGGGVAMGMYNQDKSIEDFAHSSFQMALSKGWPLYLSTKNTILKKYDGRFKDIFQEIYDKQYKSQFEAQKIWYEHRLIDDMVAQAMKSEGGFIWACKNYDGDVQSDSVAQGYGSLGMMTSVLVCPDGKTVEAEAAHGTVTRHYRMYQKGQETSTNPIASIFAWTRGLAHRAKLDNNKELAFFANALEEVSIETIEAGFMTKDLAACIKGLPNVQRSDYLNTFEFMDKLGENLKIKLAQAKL

[18] = Half-life in human hepatocytes; assay type: ADME, cell-based, Hepatocyte

Chain of CYP2C9 (P11712 whole entry): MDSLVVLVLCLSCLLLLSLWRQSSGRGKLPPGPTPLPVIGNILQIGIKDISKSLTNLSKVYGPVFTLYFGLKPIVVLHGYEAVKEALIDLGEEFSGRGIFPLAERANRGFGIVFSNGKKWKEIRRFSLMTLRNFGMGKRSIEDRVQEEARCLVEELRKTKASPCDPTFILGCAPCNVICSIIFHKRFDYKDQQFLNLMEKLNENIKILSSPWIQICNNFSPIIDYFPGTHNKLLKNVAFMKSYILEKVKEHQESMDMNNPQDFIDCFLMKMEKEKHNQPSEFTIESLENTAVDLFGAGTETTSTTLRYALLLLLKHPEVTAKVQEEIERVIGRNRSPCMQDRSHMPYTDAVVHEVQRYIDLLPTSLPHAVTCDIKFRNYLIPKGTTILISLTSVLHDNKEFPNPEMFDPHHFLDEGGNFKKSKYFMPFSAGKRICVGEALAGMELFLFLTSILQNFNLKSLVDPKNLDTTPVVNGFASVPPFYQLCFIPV

For `COc1nc(N[C@@H](C)c2cc3cc(Cl)ccc3[nH]c2=O)ncc1C#N`, the Papp B→A [1] was 7.97 ×10⁻⁶ cm/s, the remaining at 0.5 h [2] was 100 to 108% and the inhibition at 10 µM (CYP2C9) was 13.6%. The inhibition at 10 µM (CYP1A2) was 35.4%, the Papp B→A (MDR1 (P-gp)) was 9.93 ×10⁻⁶ cm/s and the fAUC [3] was 2.06 µM·h. The TDI (Cytochrome P450 3A4 [4]) was “Not Active”, the Papp B→A [5] was 8.64 ×10⁻⁶ cm/s and the inhibition in vivo at 25 mg/kg (Mus musculus [6]) was > 90%. For the same molecule, the IC50 [7] was 3.2 µM, the clearance [8] was 8.6 mL/min/kg and the “Drug uptake(free)” value [9] was “Dose-dependent effect”. The TDI (Cytochrome P450 3A4 [10]) was “Not Active”, the Papp A→B [11] was 8.66 ×10⁻⁶ cm/s and the IC50 [12] was 35 µM. The CLint scaled [13] was 13.7 mL/min/kg, the inhibition in vivo at 12.5 mg/kg (Mus musculus [14]) was > 90% and the inhibition at 10 µM (CYP2C19) was 22.7%. The inhibition at 10 µM (CYP3A4) was 15.4%, the inhibition at 10 µM (CYP2D6) was 10.2% and the half-life [15] was 10 h. It also gave a fraction unbound [16] of 0.0193, an IC50 [17] of 0.12 µM and a half-life [18] of 4.32 h.

From ChEMBL document CHEMBL4359816, “Discovery and Optimization of Quinolinone Derivatives as Potent, Selective, and Orally Bioavailable Mutant Isocitrate Dehydrogenase 1 (mIDH1) Inhibitors” (J Med Chem, 2019)
